# From the supplement of paper PMC10307832
# Legend:
# Experiment in all cases: relative viability (nuclei count vs DMSO), 5 days (fraction); higher = more cells survive
# [1] = compound: C/C(=N\NC(=S)N1CCC1)/C2=CC=CC=N2 + CS(=O)(=O)N1CCN(Cc2cc3nc(-c4cccc5[nH]ncc45)nc(N4CCOCC4)c3s2)CC1 [Pictilisib] (partner 1 µM)
# Summary of the method: (§1)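 Lung cancer cell lines in 1536-well plates got either a single drug or a fixed anchor-drug dose together with five library-drug doses (not always all listed) in √10 steps, by pin tool, on the day after seeding. Nuclei were counted after 5 days, and relative viability is the treated-to-vehicle ratio of nuclei counts. Values are medians of duplicate plates.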
# [2] = compound: C/C(=N\NC(=S)N1CCC1)/C2=CC=CC=N2 + Nc1ncn([C@H]2C[C@H](O)[C@@H](CO)O2)c(=O)n1 [Decitabine] (partner 2 µM)
# Summary of the method: as §1
# [3] = compound: C/C(=N\NC(=S)N1CCC1)/C2=CC=CC=N2 + C[C@@H](Oc1cc(-c2cnn(C3CCNCC3)c2)cnc1N)c1c(Cl)ccc(F)c1Cl [Crizotinib] (partner 1 µM)
# Summary of the method: as §1
# [4] = compound: C/C(=N\NC(=S)N1CCC1)/C2=CC=CC=N2 + Cc1nc(NC(=O)N2CCC[C@H]2C(N)=O)sc1-c1ccnc(C(C)(C)C(F)(F)F)c1 [Alpelisib] (partner 2 µM)
# Summary of the method: as §1
# [5] = compound: C/C(=N\NC(=S)N1CCC1)/C2=CC=CC=N2 + N=C(N)NC(=N)NCCc1ccccc1 [Phenformin] (partner 250 µM)
# Summary of the method: as §1
# [6] = compound: C/C(=N\NC(=S)N1CCC1)/C2=CC=CC=N2 + CS(=O)(=O)CCNCc1ccc(-c2ccc3ncnc(Nc4ccc(OCc5cccc(F)c5)c(Cl)c4)c3c2)o1 [Lapatinib] (partner 2 µM)
# Summary of the method: as §1
# [7] = compound: C/C(=N\NC(=S)N1CCC1)/C2=CC=CC=N2 + O=C(c1cc(Cc2n[nH]c(=O)c3ccccc23)ccc1F)N1CCN(C(=O)C2CC2)CC1 [Olaparib] (partner 8 µM)
# Summary of the method: as §1
# [8] = compound: C/C(=N\NC(=S)N1CCC1)/C2=CC=CC=N2 + CC1(C)CCC(c2ccc(Cl)cc2)=C(CN2CCN(c3ccc(C(=O)NS(=O)(=O)c4ccc(N[C@H](CCN5CCOCC5)CSc5ccccc5)c(S(=O)(=O)C(F)(F)F)c4)cc3)CC2)C1 [Navitoclax] (partner 0.5 µM)
# Summary of the method: as §1
# [9] = compound: C/C(=N\NC(=S)N1CCC1)/C2=CC=CC=N2 + COc1cc2c(Oc3ccc(NC(=O)C4(C(=O)Nc5ccc(F)cc5)CC4)cc3F)ccnc2cc1OCCCN1CCOCC1 [Foretinib] (partner 0.25 µM)
# Summary of the method: as §1
# [10] = compound: C/C(=N\NC(=S)N1CCC1)/C2=CC=CC=N2 + C[C@]1(O)C[C@@H](c2nc(-c3ccc4ccc(-c5ccccc5)nc4c3)c3c(N)nccn32)C1 [Linsitinib] (partner 1 µM)
# Summary of the method: as §1
# [11] = compound: C/C(=N\NC(=S)N1CCC1)/C2=CC=CC=N2
# Summary of the method: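 Lung cancer cell lines in 1536-well plates were kept overnight at 37 °C, then pinned with five library-drug doses (not always all listed) spaced by √10 on vehicle-anchored plates. After 5 days without medium change, cells were fixed, permeabilised and Hoechst-stained in one step, imaged at 4×, and nuclei were counted with MetaXpress. Viability is treated-well nuclei divided by vehicle-well nuclei, taken as the median over plates. Plates passed only with control CV below 25% and at least one doubling.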
# [12] = compound: C/C(=N\NC(=S)N1CCC1)/C2=CC=CC=N2 + CC(C)C[C@H](NC(=O)[C@H](Cc1ccccc1)NC(=O)c1cnccn1)B(O)O [Bortezomib] (partner 0.002 µM)
# Summary of the method: as §1
cell line,measurement,setting,value
A549,relative viability,[1]; first compound 0.05 µM,0.0548
same,relative viability,[1]; first compound 0.1581 µM,0.0774
same,relative viability,[1]; first compound 0.5 µM,0.0703
same,relative viability,[1]; first compound 1.581 µM,0.0543
same,relative viability,[1]; first compound 5 µM,0.0578
same,relative viability,[2]; first compound 0.05 µM,0.0459
same,relative viability,[2]; first compound 0.1581 µM,0.0345
same,relative viability,[2]; first compound 0.5 µM,0.0375
same,relative viability,[2]; first compound 1.581 µM,0.0441
same,relative viability,[2]; first compound 5 µM,0.0197
same,relative viability,[3]; first compound 0.05 µM,0.0427
same,relative viability,[3]; first compound 0.1581 µM,0.0518
same,relative viability,[3]; first compound 0.5 µM,0.0568
same,relative viability,[3]; first compound 1.581 µM,0.044
same,relative viability,[3]; first compound 5 µM,0.0637
same,relative viability,[4]; first compound 0.05 µM,0.0613
same,relative viability,[4]; first compound 0.1581 µM,0.0588
same,relative viability,[4]; first compound 0.5 µM,0.054
same,relative viability,[4]; first compound 1.581 µM,0.0318
same,relative viability,[4]; first compound 5 µM,0.0406
same,relative viability,[5]; first compound 0.05 µM,0.0324
same,relative viability,[5]; first compound 0.1581 µM,0.034
same,relative viability,[5]; first compound 0.5 µM,0.0226
same,relative viability,[5]; first compound 1.581 µM,0.0286
same,relative viability,[5]; first compound 5 µM,0.0232
same,relative viability,[6]; first compound 0.05 µM,0.065
same,relative viability,[6]; first compound 0.1581 µM,0.0607
same,relative viability,[6]; first compound 0.5 µM,0.0715
same,relative viability,[6]; first compound 1.581 µM,0.0714
same,relative viability,[6]; first compound 5 µM,0.0609
same,relative viability,[7]; first compound 0.05 µM,0.0312
same,relative viability,[7]; first compound 0.1581 µM,0.0426
same,relative viability,[7]; first compound 0.5 µM,0.0325
same,relative viability,[7]; first compound 1.581 µM,0.0517
same,relative viability,[7]; first compound 5 µM,0.0367
same,relative viability,[8]; first compound 0.05 µM,0.0538
same,relative viability,[8]; first compound 0.1581 µM,0.0583
same,relative viability,[8]; first compound 0.5 µM,0.05
same,relative viability,[8]; first compound 1.581 µM,0.0608
same,relative viability,[8]; first compound 5 µM,0.0344
same,relative viability,[9]; first compound 0.05 µM,0.0523
same,relative viability,[9]; first compound 0.1581 µM,0.0338
same,relative viability,[9]; first compound 0.5 µM,0.0289
same,relative viability,[9]; first compound 1.581 µM,0.0404
same,relative viability,[9]; first compound 5 µM,0.0168
same,relative viability,[10]; first compound 0.05 µM,0.083
same,relative viability,[10]; first compound 0.1581 µM,0.0782
same,relative viability,[10]; first compound 0.5 µM,0.0623
same,relative viability,[10]; first compound 1.581 µM,0.0706
same,relative viability,[10]; first compound 5 µM,0.053
same,relative viability,[11]; 0.05 µM,0.0587
same,relative viability,[11]; 0.1581 µM,0.0516
same,relative viability,[11]; 0.5 µM,0.0603
same,relative viability,[11]; 1.581 µM,0.0557
same,relative viability,[11]; 5 µM,0.0345
EBC-1,relative viability,[1]; first compound 0.05 µM,0.164
same,relative viability,[1]; first compound 0.1581 µM,0.205
same,relative viability,[1]; first compound 0.5 µM,0.187
same,relative viability,[1]; first compound 1.581 µM,0.116
same,relative viability,[1]; first compound 5 µM,0.14
same,relative viability,[3]; first compound 0.05 µM,0.173
same,relative viability,[3]; first compound 0.1581 µM,0.187
same,relative viability,[3]; first compound 0.5 µM,0.163
same,relative viability,[3]; first compound 1.581 µM,0.162
same,relative viability,[3]; first compound 5 µM,0.128
same,relative viability,[4]; first compound 0.05 µM,0.191
same,relative viability,[4]; first compound 0.1581 µM,0.192
same,relative viability,[4]; first compound 0.5 µM,0.166
same,relative viability,[4]; first compound 1.581 µM,0.152
same,relative viability,[4]; first compound 5 µM,0.147
same,relative viability,[6]; first compound 0.05 µM,0.225
same,relative viability,[6]; first compound 0.1581 µM,0.195
same,relative viability,[6]; first compound 0.5 µM,0.226
same,relative viability,[6]; first compound 1.581 µM,0.191
same,relative viability,[6]; first compound 5 µM,0.161
same,relative viability,[12]; first compound 0.05 µM,0.177
same,relative viability,[12]; first compound 0.1581 µM,0.226
same,relative viability,[12]; first compound 0.5 µM,0.169
same,relative viability,[12]; first compound 1.581 µM,0.162
same,relative viability,[12]; first compound 5 µM,0.174
same,relative viability,[7]; first compound 0.05 µM,0.163
same,relative viability,[7]; first compound 0.1581 µM,0.164
same,relative viability,[7]; first compound 0.5 µM,0.152
same,relative viability,[7]; first compound 1.581 µM,0.131
same,relative viability,[7]; first compound 5 µM,0.13
same,relative viability,[8]; first compound 0.05 µM,0.135
same,relative viability,[8]; first compound 0.1581 µM,0.146
same,relative viability,[8]; first compound 0.5 µM,0.136
same,relative viability,[8]; first compound 1.581 µM,0.134
same,relative viability,[8]; first compound 5 µM,0.174
same,relative viability,[9]; first compound 0.05 µM,0.0973
same,relative viability,[9]; first compound 0.1581 µM,0.107
same,relative viability,[9]; first compound 0.5 µM,0.131
same,relative viability,[9]; first compound 1.581 µM,0.0785
same,relative viability,[9]; first compound 5 µM,0.0979
same,relative viability,[10]; first compound 0.05 µM,0.13
same,relative viability,[10]; first compound 0.1581 µM,0.19
same,relative viability,[10]; first compound 0.5 µM,0.137
same,relative viability,[10]; first compound 1.581 µM,0.0985
same,relative viability,[10]; first compound 5 µM,0.11
same,relative viability,[11]; 0.05 µM,0.169
same,relative viability,[11]; 0.1581 µM,0.214
same,relative viability,[11]; 0.5 µM,0.169
same,relative viability,[11]; 1.581 µM,0.127
same,relative viability,[11]; 5 µM,0.154
